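Exposure lasted 48 hours, with cells grown in 96-well plates and compounds tested at five concentrations. Here, GI50 denotes the concentration required for 50% inhibition of growth.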 Active and inactive are the calls of the source. Rule as the data show it: active = GI50 up to about 1.1 µM and inactive = higher.
Assays:
Assay in all cases: growth of human tumour cells (NCI), 48 h
786-0 = test system: 786-0
A498 = test system: A498
ACHN = test system: ACHN
BT-549 = test system: BT-549
CAKI-1 = test system: CAKI-1
COLO 205 = test system: COLO 205
DU-145 = test system: DU-145
EKVX = test system: EKVX
HCC 2998 = test system: HCC 2998
HCT-116 = test system: HCT-116
HCT-15 = test system: HCT-15
HL-60 = test system: HL-60
HOP-62 = test system: HOP-62
HT-29 = test system: HT-29
Hs-578T = test system: Hs-578T
IGROV-1 = test system: IGROV-1
K562 = test system: K562
KM12 = test system: KM12
LOX IMVI = test system: LOX IMVI
MCF7 = test system: MCF7
MDA-MB-231 = test system: MDA-MB-231
MDA-MB-435 = test system: MDA-MB-435
MDA-N = test system: MDA-N
MOLT-4 = test system: MOLT-4
Malme-3M = test system: Malme-3M
NCI-H226 = test system: NCI-H226
NCI-H23 = test system: NCI-H23
NCI-H460 = test system: NCI-H460
NCI-H522 = test system: NCI-H522
NCI/ADR-RES = test system: NCI/ADR-RES
OVCAR-3 = test system: OVCAR-3
OVCAR-4 = test system: OVCAR-4
OVCAR-5 = test system: OVCAR-5
OVCAR-8 = test system: OVCAR-8
PC-3 = test system: PC-3
RXF 393 = test system: RXF 393
SF-268 = test system: SF-268
SF-295 = test system: SF-295
SK-MEL-2 = test system: SK-MEL-2
SK-MEL-5 = test system: SK-MEL-5
SN12C = test system: SN12C
SNB-19 = test system: SNB-19
SNB-75 = test system: SNB-75
SR = test system: SR
SW-620 = test system: SW-620
TK-10 = test system: TK-10
U-251 = test system: U-251
UACC-257 = test system: UACC-257
UACC-62 = test system: UACC-62
UO-31 = test system: UO-31
A549 = test system: A549
CCRF-CEM = test system: CCRF-CEM
HOP-92 = test system: HOP-92
M14 = test system: M14
RPMI-8226 = test system: RPMI-8226
SK-MEL-28 = test system: SK-MEL-28
SK-OV-3 = test system: SK-OV-3
T47D = test system: T47D

Structure (SMILES): NC1=NC(=O)[C@H](CSCc2ccccc2)N1C(=O)OCc1ccccc1
- GI50 (786-0): > 100 µM (inactive)
- GI50 (A498): > 100 µM (inactive)
- GI50 (ACHN): > 100 µM (inactive)
- GI50 (BT-549): > 100 µM (inactive)
- GI50 (CAKI-1): > 100 µM (inactive)
- GI50 (COLO 205): > 100 µM (inactive)
- GI50 (DU-145): > 100 µM (inactive)
- GI50 (EKVX): > 100 µM (inactive)
- GI50 (HCC 2998): > 100 µM (inactive)
- GI50 (HCT-116): > 100 µM (inactive)
- GI50 (HCT-15): > 100 µM
- GI50 (HL-60): > 100 µM (inactive)
- GI50 (HOP-62): > 100 µM (inactive)
- GI50 (HT-29): > 100 µM (inactive)
- GI50 (Hs-578T): > 100 µM (inactive)
- GI50 (IGROV-1): > 100 µM (inactive)
- GI50 (K562): > 100 µM (inactive)
- GI50 (KM12): > 100 µM (inactive)
- GI50 (LOX IMVI): > 100 µM (inactive)
- GI50 (MCF7): > 100 µM (inactive)
- GI50 (MDA-MB-231): > 100 µM (inactive)
- GI50 (MDA-MB-435): > 100 µM (inactive)
- GI50 (MDA-N): > 100 µM (inactive)
- GI50 (MOLT-4): > 100 µM (inactive)
- GI50 (Malme-3M): > 100 µM (inactive)
- GI50 (NCI-H226): > 100 µM (inactive)
- GI50 (NCI-H23): > 100 µM (inactive)
- GI50 (NCI-H460): > 100 µM (inactive)
- GI50 (NCI-H522): > 100 µM (inactive)
- GI50 (NCI/ADR-RES): > 100 µM (inactive)
- GI50 (OVCAR-3): > 100 µM (inactive)
- GI50 (OVCAR-4): > 100 µM (inactive)
- GI50 (OVCAR-5): > 100 µM (inactive)
- GI50 (OVCAR-8): > 100 µM (inactive)
- GI50 (PC-3): > 100 µM (inactive)
- GI50 (RXF 393): > 100 µM (inactive)
- GI50 (SF-268): > 100 µM (inactive)
- GI50 (SF-295): > 100 µM (inactive)
- GI50 (SK-MEL-2): > 100 µM (inactive)
- GI50 (SK-MEL-5): > 100 µM (inactive)
- GI50 (SN12C): > 100 µM (inactive)
- GI50 (SNB-19): > 100 µM (inactive)
- GI50 (SNB-75): > 100 µM (inactive)
- GI50 (SR): > 100 µM (inactive)
- GI50 (SW-620): > 100 µM (inactive)
- GI50 (TK-10): > 100 µM (inactive)
- GI50 (U-251): > 100 µM (inactive)
- GI50 (UACC-257): > 100 µM (inactive)
- GI50 (UACC-62): > 100 µM (inactive)
- GI50 (UO-31): > 100 µM (inactive)

Structure (SMILES): N#CCSc1c(-c2ccccc2)c(=O)n(-c2ccccc2)c(=S)n1-c1ccccc1
- GI50 (786-0): > 100 µM (inactive)
- GI50 (A549): > 100 µM (inactive)
- GI50 (ACHN): > 100 µM (inactive)
- GI50 (CAKI-1): > 100 µM (inactive)
- GI50 (CCRF-CEM): 96.8 µM (inactive)
- GI50 (COLO 205): > 100 µM (inactive)
- GI50 (DU-145): > 10 µM (inactive)
- GI50 (EKVX): > 100 µM (inactive)
- GI50 (HCT-116): > 100 µM (inactive)
- GI50 (HCT-15): > 100 µM
- GI50 (HL-60): > 100 µM (inactive)
- GI50 (HOP-62): > 100 µM (inactive)
- GI50 (HOP-92): 4.99 µM (inactive)
- GI50 (HT-29): > 100 µM (inactive)
- GI50 (Hs-578T): 51.5 µM (inactive)
- GI50 (IGROV-1): > 100 µM (inactive)
- GI50 (K562): > 100 µM (inactive)
- GI50 (KM12): > 100 µM (inactive)
- GI50 (LOX IMVI): > 100 µM (inactive)
- GI50 (M14): > 100 µM (inactive)
- GI50 (MCF7): > 100 µM (inactive)
- GI50 (MDA-MB-435): 90.6 µM (inactive)
- GI50 (MDA-N): 95.3 µM (inactive)
- GI50 (MOLT-4): > 100 µM (inactive)
- GI50 (Malme-3M): > 100 µM (inactive)
- GI50 (NCI-H226): > 100 µM (inactive)
- GI50 (NCI-H23): > 100 µM (inactive)
- GI50 (NCI-H460): > 100 µM (inactive)
- GI50 (NCI-H522): > 100 µM (inactive)
- GI50 (NCI/ADR-RES): > 100 µM (inactive)
- GI50 (OVCAR-3): > 100 µM (inactive)
- GI50 (OVCAR-4): > 100 µM (inactive)
- GI50 (OVCAR-5): > 100 µM (inactive)
- GI50 (OVCAR-8): > 100 µM (inactive)
- GI50 (PC-3): > 100 µM (inactive)
- GI50 (RPMI-8226): > 100 µM (inactive)
- GI50 (SF-268): > 100 µM (inactive)
- GI50 (SF-295): > 100 µM (inactive)
- GI50 (SK-MEL-28): > 100 µM (inactive)
- GI50 (SK-MEL-2): > 100 µM (inactive)
- GI50 (SK-MEL-5): 84.5 µM (inactive)
- GI50 (SK-OV-3): > 100 µM (inactive)
- GI50 (SN12C): > 100 µM (inactive)
- GI50 (SNB-19): > 100 µM (inactive)
- GI50 (SNB-75): 20.1 µM (inactive)
- GI50 (SR): > 100 µM (inactive)
- GI50 (SW-620): > 100 µM (inactive)
- GI50 (T47D): > 100 µM (inactive)
- GI50 (TK-10): > 100 µM (inactive)
- GI50 (U-251): > 100 µM (inactive)
- GI50 (UACC-257): > 100 µM (inactive)
- GI50 (UACC-62): 32.9 µM (inactive)
- GI50 (UO-31): > 100 µM (inactive)
